Measured values taken from article PMC8874615 (Viruses, 2022).
≈ marks a conversion by molar mass, not a printed value. Where two headings read alike, the source gives them in different places.

How the values were obtained:
[1] = system: Mardin-Darby canine kidney cells (MDCK); settings: cited from earlier work
[2] = system: ZIKV strain Paraiba_01; assay: Mechanistic plaque number assay, ZIKV in Vero cells; format: cell-based, Zika virus; settings: diphyllin 1 100 µM, bafilomycin A1 100 nM
[3] = system: TBEV, strain Hypr; assay: microbe, parasite or virus in culture; settings: Tick-borne encephalitis virus, Vero
[4] = Cytotoxicity assay (Cell Counting Kit-8) in Vero cells; settings: African green monkey
[5] = system: HSV-1 strain MacIntyre; assay: Mechanistic plaque number assay, HSV-1 in Vero cells; format: cell-based, herpes simplex virus type 1; settings: diphyllin 1 100 µM, bafilomycin A1 100 nM
[6] = Cytotoxicity assay (Cell Counting Kit-8) in Huh-7 cells; settings: human, Huh-7 hepatocarcinoma cells
[7] = Cytotoxicity assay (Cell Counting Kit-8) in HBCA cells; settings: human, human brain cortical astrocytes (HBCA)
[8] = system: feline macrophage-like cells (fcwf-4); settings: fcwf-4 cells; cited from earlier work
[9] = system: RVFV, strain H13/96; assay: microbe, parasite or virus in culture; settings: Rift Valley fever virus, Vero
[10] = system: human lung carcinoma cells (A549); settings: cited from earlier work
[11] = Cytotoxicity assay (Cell Counting Kit-8) in BHK-21 cells; settings: hamster, BHK-21 cells (baby hamster kidney)
[12] = system: endosomal acidification in Vero cells; assay: Analysis of endosomal acidification with acridine orange; format: cell-based, African Green Monkey; settings: 20 min
[13] = system: rabbit lung cells (RL-33); settings: RL-33 cells; cited from earlier work
[14] = system: HSV-1, strain MacIntyre
[15] = system: RABV, strain CVS-11
[16] = Cytotoxicity assay (Cell Counting Kit-8) in PS cells; settings: pig, porcine kidney stable (PS) cells
[17] = Light sensitivity of the prepared sample; format: physicochemical; settings: solid sample; surface coloration, detrimental to antivirus activities
[18] = Cytotoxicity assay (Cell Counting Kit-8) in UKF-NB-4 cells; settings: human, UKF-NB-4 neuroblastoma cells
[19] = system: RVFV, strain H13/96
[20] = system: ZIKV, strain Paraiba_01
[21] = system: RABV, strain CVS-11; assay: microbe, parasite or virus in culture; settings: Lyssavirus rabies, BHK-21, 72 h
[22] = system: WNV, strain Eg-101; assay: microbe, parasite or virus in culture; settings: West Nile virus, Vero
[23] = system: WNV, strain Eg-101
[24] = system: TBEV, strain Hypr
[25] = system: HSV-1, strain MacIntyre; assay: microbe, parasite or virus in culture; settings: Human alphaherpesvirus 1, Vero
[26] = system: ZIKV, strain Paraiba_01; assay: microbe, parasite or virus in culture; settings: Zika virus, Vero
[27] = 3 h p.i. treatment then washing, plaques counted at 120 h
[28] = compound kept for the whole 120 h p.i.
[29] = 3 h p.i. treatment then washing, plaques counted at 72 h
[30] = compound kept for the whole 72 h p.i.

Structure (SMILES): COc1cc2c(O)c3c(c(-c4ccc5c(c4)OCO5)c2cc1OC)C(=O)OC3 [Diphyllin 1, 9-(3‣,4‣-methylenedioxyphenyl)-4-hydroxy-6,7-dimethoxynaphtho[2,3-c]furan-1(3H)-one]
- CC50 [1]: 3.48 µM
- susceptibility of ZIKV (plaque number) [2, 27]: susceptible
- susceptibility of ZIKV (plaque number) [2, 28]: susceptible
- EC50 [3]: 0.85 µM
- EC50 ([3]; 48 h): 1.04 µM
- CC50 at 48 h [4]: > 100 µM
- CC50 at 72 h [4]: > 100 µM
- CC50 at 144 h [4]: 18.2 µM
- susceptibility of HSV-1 (plaque number) [5, 29]: not susceptible
- susceptibility of HSV-1 (plaque number) [5, 30]: highly susceptible
- CC50 at 48 h [6]: 1.89 µM
- CC50 at 48 h [7]: 3.39 µM
- CC50 [8]: 5.99 µM
- EC50 [9]: 0.46 µM
- CC50 [10]: 24 µM
- CC50 at 72 h [11]: > 100 µM
- red fluorescence intensity of acidic endosomes (acridine orange) ([12]; 100 µM, versus DMSO control): much reduced
- CC50 [13]: 63 µg/mL (≈ 166 µM)
- SI (CC50/EC50) [14]: >169.49
- concentration at which complete HSV-1 suppression starts [14]: ≥ 2.5 µM
- SI (CC50/EC50) [15]: >15.80
- drop in RABV RNA copies/µL compared with RABV-infected control cells [15]: 10^2
- CC50 at 48 h [16]: 92.4 µM
- light sensitivity [17]: rather light-sensitive
- CC50 at 48 h [18]: 11.1 µM
- SI (CC50/EC50) [19]: >217.39
- SI (CC50/EC50) [20]: >185.19
- EC50 [21]: 6.33 µM
- EC50 [22]: 0.78 µM
- SI (CC50/EC50) [23]: >128.20
- SI (CC50/EC50) [24]: >117.64
- EC50 [25]: 0.59 µM
- EC50 [26]: 0.54 µM

Structure (SMILES): COc1cc2c(O[C@@H]3O[C@H](CO)[C@@H](O)[C@H](O)[C@H]3O)c3c(c(-c4ccc5c(c4)OCO5)c2cc1OC)C(=O)OC3 [Cleistanthin B 8, diphyllin-4-β-D-glucopyranoside, reference compound]
- EC50 [3]: 5.53 µM
- CC50 at 48 h [4]: > 100 µM
- CC50 at 72 h [4]: > 100 µM
- CC50 at 144 h [4]: 80.7 µM
- CC50 at 48 h [6]: 3.96 µM
- CC50 at 48 h [7]: 2.08 µM
- CC50 at 48 h [16]: 78.9 µM
- CC50 at 48 h [18]: 6.17 µM
- SI (CC50/EC50) [24]: >18.08

Structure (SMILES): CO/C1=C\C(C)=C\[C@@H](C)[C@@H](O)[C@@H](C)C/C(C)=C/C=C/[C@H](OC)[C@@H]([C@@H](C)[C@@H](O)[C@H](C)[C@@]2(O)C[C@@H](O)[C@H](C)[C@@H](C(C)C)O2)OC1=O [bafilomycin A1, reference compound]
- susceptibility of ZIKV (plaque number) [2, 27]: susceptible
- susceptibility of ZIKV (plaque number) [2, 28]: susceptible
- viability at 48 h, 0.15 µM [4]: ~80%
- susceptibility of HSV-1 (plaque number) [5, 29]: not susceptible
- susceptibility of HSV-1 (plaque number) [5, 30]: not susceptible
- red fluorescence intensity of acidic endosomes (acridine orange) ([12]; 100 nM, positive control): all the more obvious
- effect on HSV-1 virus titers [14]: no effect
- EC50 ([25]; 48 h): > 0.1 µM
- EC50 ([26]; 48 h): 0.00244 µM

Structure (SMILES): COc1cc2c(O)c3c(c(-c4ccc5c(c4)OCO5)c2cc1OC)C(=O)OC3 [commercial product, diphyllin]
- EC50 [24]: 1.24 µM
